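Method: 48-hour compound exposure of cells in 96-well plates, five concentrations, linear interpolation of endpoints. At the GI50, growth is halved. TGI is the concentration that stops growth completely.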
Experiments:
Experiment in all cases: NCI-60 cell line screen, 48 h
U251 CNS = system: U251 CNS
UACC-257 melanoma = system: UACC-257 melanoma
UO-31 renal = system: UO-31 renal
HCT-116 colon = system: HCT-116 colon
SK-MEL-28 melanoma = system: SK-MEL-28 melanoma
UACC-62 melanoma = system: UACC-62 melanoma
HS 578T breast = system: HS 578T breast
MDA-MB-435 = system: MDA-MB-435
HOP-92 NSCLC = system: HOP-92 NSCLC
SK-MEL-2 melanoma = system: SK-MEL-2 melanoma

Row | Structure (SMILES) | TGI (U251 CNS) [µM] | TGI (UACC-257 melanoma) [µM] | TGI (UO-31 renal) [µM] | TGI (HCT-116 colon) [µM] | TGI (SK-MEL-28 melanoma) [µM] | TGI (UACC-62 melanoma) [µM] | TGI (HS 578T breast) [µM] | TGI (MDA-MB-435) [µM] | TGI (HOP-92 NSCLC) [µM] | TGI (SK-MEL-2 melanoma) [µM] | GI50 (U251 CNS) [µM] | GI50 (HS 578T breast) [µM] | GI50 (UACC-257 melanoma) [µM] | GI50 (UO-31 renal) [µM] | GI50 (HCT-116 colon) [µM] | GI50 (MDA-MB-435) [µM] | GI50 (SK-MEL-28 melanoma) [µM] | GI50 (HOP-92 NSCLC) [µM] | GI50 (UACC-62 melanoma) [µM] | GI50 (SK-MEL-2 melanoma) [µM]
1 | NC1CC=C(COC(=O)C(O)(c2ccccc2)C2CC2)CC1 (centres undefined) | > 100 | > 100 | > 100 | > 100 | > 100 | > 100 |  |  |  |  |  |  |  |  |  |  |  |  |  | 
2 | Cc1ccc(N=C2C(=Nc3ccc(C)cc3)N(c3ccc(C)cc3)C(=S)N2C(=O)c2ccccc2)cc1 | > 100 |  | > 100 |  | > 100 | > 100 | > 100 | > 100 | > 100 | > 100 |  |  |  |  |  |  |  |  |  | 
3 | C=CCC(C(=O)Nc1cccc2[nH]cnc12)C(=O)OCC (centres undefined) | > 100 | > 100 | > 100 | > 100 | > 100 | > 100 | > 100 | > 100 | > 100 | > 100 |  |  |  |  |  |  |  |  |  | 
4 | O=c1ccc2nc(-c3ccccn3)nn(-c3ccccc3)c-2c1 | 14.2 | 3.93 | 2.82 | 3.42 | 3.24 | 4.3 | 35.9 | 5.75 | 2.42 | 8.68 | 3.7 | 2.85 | 1.92 | 1.46 | 1.77 | 2.29 | 1.69 | 1.15 | 1.95 | 2.96
5 | CCOC(=O)c1c(-c2cccc3ccccc23)c(C#N)c(=S)n(C2OC(COC(C)=O)C(OC(C)=O)C(OC(C)=O)C2OC(C)=O)c1C (centres undefined) | > 100 | > 100 | 3.49 | > 100 | > 100 | > 100 |  | > 100 | > 100 | > 100 |  |  |  |  |  |  |  |  |  | 
6 | COc1ccc(C[C@H](N)C(=O)N2C[C@@H](CO)C[C@@H](n3ccc(=O)[nH]c3=O)C2)cc1 | > 100 |  | > 100 | > 100 | > 100 | > 100 |  |  | > 100 | > 100 |  |  |  |  |  |  |  |  |  | 
7 | O=c1[nH]c(=S)c2cc3c(=S)[nH]c(=O)n(CCO)c3nc2n1CCO | > 100 | > 100 | > 100 | > 100 | > 100 |  |  | > 100 | > 100 | > 100 |  |  |  |  |  |  |  |  |  | 
8 | COc1ccc(-c2nn(-c3ccc(NC(=O)Nc4ccc(Cl)c(C(F)(F)F)c4)cc3)cc2-c2ccncc2)cc1Cl | 2.59 | 4.91 | 3.05 | 2.69 | 3.64 | 2.75 | 4.22 | 4.8 | 3.84 | 3.75 | 0.928 | 1.1 | 1.94 | 1.1 | 1.1 | 1.79 | 1.67 | 1.14 | 1.33 | 1.74
9 | C[N+](C)(CCNC(=O)c1cccc2cc3ccccc3nc12)Cc1ccc([N+](=O)[O-])s1 | > 25 | > 25 | > 25 | > 25 | > 25 | > 25 | > 25 | > 25 | > 25 | > 25 |  |  |  |  |  |  |  |  |  | 
10 | Cc1ccc(-n2cc([Si](C)(C)C)nn2)s1 | > 100 | > 100 | > 100 | > 100 | > 100 | > 100 | > 100 | > 100 | > 100 | > 100 |  |  |  |  |  |  |  |  |  | 
11 | N#CC(C#N)=C1C(=O)NC(N)=C1C#N | > 100 | > 100 | > 100 | > 100 | > 100 | > 100 | > 100 | > 100 | > 100 | > 100 |  |  |  |  |  |  |  |  |  | 
12 | CCOc1ccc2c(c1)c(=O)c1c(NCCN(CC)CC)ccc3nnn2c31 | > 58.2 | > 59.6 |  | > 44.9 | > 55 | > 100 | > 100 | 32.5 | > 100 | > 100 |  |  |  |  |  |  |  |  |  | 
13 | C=C(c1ccccc1)c1ccccc1-c1cc(-c2ccccc2)cc(-c2ccccc2)n1 | > 100 | > 100 | > 100 | > 100 | > 100 | > 100 | > 100 | > 100 | > 100 |  |  |  |  |  |  |  |  |  |  | 
14 | Cc1cn(S(=O)(=O)c2ccccc2)c2c(OCc3ccccc3)cc(NS(C)(=O)=O)cc12 | > 65.7 | > 78 | > 100 | > 100 | > 100 | > 89.2 | > 100 | > 100 | > 89.8 | 63.5 |  |  |  |  |  |  |  |  |  | 
15 | COc1ccc(C2=NN=C3C(c4ccccc4)=Nc4ccccc4N3C2)cc1 | > 100 | > 100 | 49.8 | 71.2 | > 100 | > 100 |  | > 100 | > 100 | > 100 |  |  |  |  |  |  |  |  |  | 
16 | O=C(O)C(=O)/C=C(\O)c1ccc(Br)cc1 | > 100 | > 100 | > 100 | > 100 | > 100 | > 100 | > 100 | > 100 | > 100 | > 100 |  |  |  |  |  |  |  |  |  | 
17 | OC(CC(O)(C(F)(F)F)C(F)(F)F)c1ccc(C(O)CC(O)(C(F)(F)F)C(F)(F)F)cc1 (centres undefined) | 31.1 | 32.2 | 23 | 24 | 30.6 | 25.2 | 47.7 | 32.7 | 25.9 | 38.4 |  |  |  |  |  |  |  |  |  | 
18 | CCC[C@@H]1C(=O)N=C(N)N1C(=O)OCc1ccccc1 | > 100 | > 100 | > 100 | > 100 | > 100 | > 100 | > 100 | > 100 |  | > 100 |  |  |  |  |  |  |  |  |  | 
19 | COC(=O)C1=C(C(=O)OC)SC2(S1)C(C(=O)OC)=C(C(=O)OC)Sc1c2ssc1=NC(C)(C)C | 3.54 | 3.05 | 3.34 | 2.03 | 5.02 | 2.97 | 18.5 | 3.08 | 2.76 | 2.82 |  |  |  |  |  |  |  |  |  | 
20 | C=CCn1c(-c2ccc([N+](=O)[O-])cc2)csc1=N | > 100 | > 100 | > 100 | > 100 | > 100 | > 100 | > 100 | > 100 | > 100 | > 100 |  |  |  |  |  |  |  |  |  | 

— PubChem BioAssay (NCI)
